46 molecules from patent US9458141B2, “Low molecular weight thyroid stimulating hormone receptor (TSHR) agonists” (The United States of America, as represented by the …, priority 2008, dated 2016) can be followed below.

Where two headings read alike, the source gives them in different places.

The target in the assay is T1, human TSHR (Homo sapiens, UniProt P16473).
T1 construct: expressed in transfected cells
Kind of assay: Homogeneous Time Resolved Fluorescence (HTRF) cAMP assay, TSHR cell line. Particulars: for AC50: HTRF cAMP, TSHR cell line, 30 minute incubation; for Emax: read-out: Maximum Activity compared to TSH, 100% activity = response of 30 mU/ml TSH, 0% = DMSO control; for Maximum Activity compared to TSH: 100% activity = response of 30 mU/ml TSH, 0% = DMSO control, in %; call rule not given here. It is filed as cell-based.

T1 sequence (P16473 21-764): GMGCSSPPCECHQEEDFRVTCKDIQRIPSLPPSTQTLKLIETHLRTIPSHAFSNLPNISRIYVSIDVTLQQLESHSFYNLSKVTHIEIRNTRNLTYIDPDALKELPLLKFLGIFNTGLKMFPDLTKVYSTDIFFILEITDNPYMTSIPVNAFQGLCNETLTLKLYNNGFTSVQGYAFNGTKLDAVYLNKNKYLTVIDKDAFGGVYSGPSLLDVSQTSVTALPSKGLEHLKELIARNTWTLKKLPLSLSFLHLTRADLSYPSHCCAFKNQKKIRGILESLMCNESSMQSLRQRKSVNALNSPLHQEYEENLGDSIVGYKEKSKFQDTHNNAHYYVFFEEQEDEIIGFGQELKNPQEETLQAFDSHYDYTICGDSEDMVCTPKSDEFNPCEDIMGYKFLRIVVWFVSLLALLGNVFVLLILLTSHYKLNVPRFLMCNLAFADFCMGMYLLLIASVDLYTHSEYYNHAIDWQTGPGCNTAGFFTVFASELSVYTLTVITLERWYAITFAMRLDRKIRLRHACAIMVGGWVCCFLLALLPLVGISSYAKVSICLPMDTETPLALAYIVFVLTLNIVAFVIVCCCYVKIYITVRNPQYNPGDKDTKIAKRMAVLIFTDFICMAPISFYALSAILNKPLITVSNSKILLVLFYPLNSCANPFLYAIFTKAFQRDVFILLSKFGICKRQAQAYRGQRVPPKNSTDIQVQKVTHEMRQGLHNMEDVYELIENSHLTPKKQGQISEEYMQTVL

With `O=C1c2ccccc2NC(c2ccccc2O)N1Cc1ccccc1` (stereo not drawn) [Structure 180], the AC50 result was “inactive”. `COc1ccc(-c2nc3ccc(Cl)cc3c(=O)n2Cc2ccccc2)cc1COc1ccc(NC(C)=O)cc1` [Structure 181]: the Emax stood at 22.5%. Also, where the note is “read-out: AC50”, the AC50 stood at 3.98 µM. As for `COc1ccc(C2Nc3ccccc3C(=O)N2Cc2ccco2)cc1COc1c(C)cccc1C` (stereo not drawn) [Structure 182], the half-maximal activity concentration (AC50) result is “inactive”. Consider `O=C1CC(c2ccco2)CC2=C1C(c1ccncc1)n1nc(C(F)(F)F)nc1N2` (stereo not drawn) [Structure 183], for which the AC50 result is “inactive”. On the same count and under the same terms, for `COc1ccc(C=O)cc1COc1ccc(NC(C)=O)cc1` [Structure 184] the value was “inactive”; for `COc1ccc(C2Nc3ccccc3C(=O)N2CCCN(C)C)cc1COc1ccc(NC(C)=O)cc1` (stereo not drawn) [Structure 186], “inactive”.

`COc1ccc(C2Nc3ccc(Cl)cc3C(=O)N2Cc2ccccc2)cc1COc1ccc(C(N)=O)cc1` (stereo not drawn) [Structure 187]: the AC50 entry was “inactive”.

As for `COc1ccc(C2Nc3ccccc3C(=O)N2Cc2ccco2)cc1COc1ccc([N+](=O)[O-])cc1` (stereo not drawn) [Structure 188], the AC50 result was “inactive”. Consider `COc1ccc(CN(Cc2ccccc2)C(=O)c2ccccc2O)cc1` [Structure 189], for which the “Maximum Activity compared to TSH” value amounted to 24.00. The half-maximal activity concentration (AC50) (read-out: AC50) came out at 22.4 µM. Regarding `COc1ccc(-c2nc3ccc(NC(C)=O)cc3c(=O)n2Cc2ccccc2)cc1COc1ccc(NC(C)=O)cc1` [Structure 191], the AC50 result was “inactive”. The same measure, in the same setting: for `O=c1c2ccccc2nc(-c2ccccc2O)n1Cc1ccccc1` [Structure 192] the value was “inactive”; for `CC(=O)Nc1cccc(OCc2cccc(C3Nc4ccccc4C(=O)N3Cc3ccco3)c2)c1` (stereo not drawn) [Structure 193], “inactive”. Consider `O=C(c1ccccc1O)N(Cc1ccccc1)Cc1ccccc1` [Structure 194], for which the “Maximum Activity compared to TSH” value is on record as 27.50. For the same molecule, the half-maximal activity concentration (AC50) (read-out: AC50) was 31.6 µM.

For the molecule `COc1ccc(-c2nc3ccccc3c(=O)n2Cc2ccccc2)cc1OCc1ccc(NC(C)=O)cc1` [Structure 195], the AC50 entry was “inactive”. The same measure, in the same setting: as for `COc1ccc(C2Nc3ccccc3C(=O)N2Cc2ccccc2)cc1COc1ccc(C)cc1` (stereo not drawn) [Structure 196], the entry is “inactive”. For the molecule `COc1ccc(C2Nc3ccccc3C(=O)N2Cc2ccc(C(F)(F)F)cc2)cc1COc1ccc(NC(C)=O)cc1` (stereo not drawn) [Structure 197], the Emax came to 17%. For the same molecule, the AC50 (read-out: AC50) was 2.82 µM. On to `COc1ccc(C2Nc3ccccc3C(=O)N2Cc2ccccc2OC)cc1COc1ccc(NC(C)=O)cc1` (stereo not drawn) [Structure 198], for which the Emax was 18%. Further, under “read-out: AC50”, the AC50 was 20 µM. Turning to `COc1ccc(C2Nc3ccccc3C(=O)N2Cc2ccccc2)cc1COc1cccc(C)c1` (stereo not drawn) [Structure 200], the “Maximum Activity compared to TSH” value is reported as 38.00. In addition, the AC50 (read-out: AC50) was determined as 28.2 µM. Turning to `COc1ccc(C2Nc3ccccc3C(=O)N2Cc2ccccc2C)cc1COc1ccc(NC(C)=O)cc1` (stereo not drawn) [Structure 201], the AC50 entry was “inactive”. As to `COc1ccc(C(=O)O)cc1COc1ccc(NC(C)=O)cc1` [Structure 202], the AC50 result was “inactive”.

For `COc1ccc(C(=O)C2C(=O)C(=O)N(Cc3ccco3)C2c2cccs2)cc1` (stereo not drawn) [Structure 205], the AC50 result was “inactive”. Same read-out and setting: as for `COc1ccc(-c2nc3ccc(Cl)cc3c(=O)n2Cc2ccccc2)cc1COc1ccc(NC(C)=O)cc1` [Structure 206], the entry is “inactive”. As for `COc1ccc(C2Nc3ccccc3C(=O)N2Cc2ccco2)cc1COc1ccccc1` (stereo not drawn) [Structure 207], the AC50 entry is “inactive”. Turning to `COc1ccc(C2Nc3ccccc3C(=O)N2Cc2ccccc2)cc1COc1cccc(C(F)(F)F)c1` (stereo not drawn) [Structure 208], the AC50 result was “inactive”. Still for that read-out and setting: as for `COc1ccc(C2Nc3ccccc3C(=O)N2CCO)cc1COc1ccc(NC(C)=O)cc1` (stereo not drawn) [Structure 209], the entry is “inactive”; as for `COc1ccc(O)c(-c2nc3ccccc3c(=O)n2Cc2ccccc2)c1` [Structure 211], “inactive”; as for `O=C1CC(c2ccco2)CC2=C1C(c1ccc(O)cc1)n1nc(C(F)(F)F)nc1N2` (stereo not drawn) [Structure 213], “inactive”. Consider `COc1ccc(C2Nc3ccccc3C(=O)N2Cc2ccc(C(C)(C)C)cc2)cc1COc1ccc(NC(C)=O)cc1` (stereo not drawn) [Structure 214], for which the AC50 entry is “inactive”. For the molecule `COc1ccc(CN(Cc2ccccc2)C(=O)Nc2ccccc2)cc1COc1ccc(NC(C)=O)cc1` [Structure 215], the “Maximum Activity compared to TSH” value is reported as 20.00. As to `COc1ccc(O)c(C2Nc3ccccc3C(=O)N2Cc2ccccc2)c1` (stereo not drawn) [Structure 216], the AC50 result was “inactive”. Consider `COc1ccc2c(c1OC)C(=O)N1c3ccccc3C(=O)N(Cc3ccco3)C21` (stereo not drawn) [Structure 217], for which the AC50 result is “inactive”. Regarding `COc1ccc(-c2nc3cccc(OC)c3c(=O)n2Cc2ccccc2)cc1COc1ccc(NC(C)=O)cc1` [Structure 218], the Emax stood at 38%. Further, the AC50 (read-out: AC50) is 39.8 µM. For the molecule `O=C(c1ccccc1O)N(Cc1ccco1)Cc1ccco1` [Structure 219], the AC50 entry was “inactive”.

Take `COc1ccc(CN(Cc2ccccc2)C(=O)c2ccccc2O)cc1COc1ccc(NC(C)=O)cc1` [Structure 220]: the “Maximum Activity compared to TSH” value is 32.00. Where the note is “read-out: AC50”, the AC50 was 17.8 µM.

On to `COc1ccc(C2Nc3ccccc3C(=O)N2CCO)cc1COc1ccc(NC(C)=O)cc1` (stereo not drawn) [Structure 221], for which the AC50 entry was “inactive”. Take `COc1ccc(CN(Cc2ccccc2)[S+](=O)([O-])c2ccccc2)cc1COc1ccc(NC(C)=O)cc1` [Structure 223]: the AC50 entry is “inactive”.

As to `COc1ccc(C2Nc3ccccc3C(=O)N2CCc2ccc(Cl)cc2Cl)cc1COc1ccc(NC(C)=O)cc1` (stereo not drawn) [Structure 224], the AC50 entry is “inactive”.

Consider `COc1ccc(C2Nc3ccccc3C(=O)N2CCc2ccc(Cl)cc2Cl)cc1COc1ccc(NC(C)=O)cc1` (stereo not drawn) [Structure 225], for which the AC50 entry is “inactive”. On to `COc1ccc(C2Nc3ccccc3C(=O)N2Cc2ccccc2)cc1COc1ccc(NC(C)=O)cc1` (stereo not drawn) [Structure 227], for which the AC50 result was “inactive”. Still for that read-out and setting: for `COc1ccc(C2Nc3ccccc3C(=O)N2Cc2ccccc2)cc1OCc1ccc(NC(C)=O)cc1` (stereo not drawn) [Structure 228] the value was “inactive”. Take `COc1ccc(C2Nc3ccccc3C(=O)N2Cc2ccccc2)cc1COc1ccccc1OC` (stereo not drawn) [Structure 229]: the Emax worked out at 23.5%. For the same molecule, the AC50 (read-out: AC50) came out at 8.91 µM.

For the molecule `COc1cc(C2Nc3ccccc3C(=O)N2Cc2ccccc2)ccc1OCc1ccc(NC(C)=O)cc1` (stereo not drawn) [Structure 230], the half-maximal activity concentration (AC50) entry is “inactive”. Consider `COc1ccc(C2Nc3ccccc3C(=O)N2Cc2ccccc2Cl)cc1COc1ccc(NC(C)=O)cc1` (stereo not drawn) [Structure 231], for which the Emax is 16%. Moreover, where the note is “read-out: AC50”, the AC50 worked out at 3.55 µM.

With `COc1ccc(C2Nc3ccccc3C(=O)N2Cc2ccccc2)cc1COc1ccc(C)cc1` (stereo not drawn) [Structure 232], the AC50 entry is “inactive”. Same read-out and setting: as for `COc1ccc(C2NC(=O)c3ccccc3N2)cc1COc1ccc(NC(C)=O)cc1` (stereo not drawn) [Structure 233], the entry is “inactive”. `COc1ccc(C2Nc3ccccc3C(=O)N2Cc2ccc(C(F)(F)F)cc2)cc1COc1ccc(NC(C)=O)cc1` (stereo not drawn) [Structure 234]: the “Maximum Activity compared to TSH” value was 18.00. In addition, the AC50 (read-out: AC50) is 8.91 µM.
